{"source": "patent US5840696A", "about": "(priority 1997, dated 1998)", "key": {"[1]": {"tested_on": "pulmonary vascular bed", "assay": "pulmonary vascular bed of the intact-chest anesthetized rat under elevated pulmonary vasomotor tone", "format": "in vivo", "conditions": "intralobar arterial bolus injections", "protocol": "Since pulmonary blood flow and left atrial pressure were held constant, the decreases in pulmonary artery pressure directly reflect decreases in pulmonary vascular resistance. N=number of animals.\nMale Charles River rats (260-340 go) were anesthetized with an intraperitoneal injection of pentobarbital sodium (30 mg/kg), and allowed to breath air enriched with oxygen through an endotracheal tube inserted by tracheotomy. The anesthetized animals were strapped in a supine position to a fluoroscopic table, and catheters were inserted in femoral blood vessels. A specially designed triple lumen balloon perfusion catheter was constructed (Nu-Med, Hopkinton, N.Y.). This catheter is 145 mm in length, […]. and with specially curved tip to facilitate passage through the right heart and main pulmonary artery into the artery supplying the right lower lung lobe. At the distal tip of the catheter is a pressure port through which a 0.25 mm soft tip coronary artery angioplasty guide wire is inserted. […] Mean pressure in the right lower lobe artery and the aorta were continuously recorded. […] Since this catheter perfuses approximately one-sixth of the lung, as determined by measuring lung weight, this perfusion rate approximate physiologic flow for that lung area, i.e. at least 15-20% of the 75-85 ml/min normal total pulmonary blood flow of the rat. […]"}, "[2]": {"biological_target": "T1, central kappa-opioid receptors (Rattus norvegicus, UniProt P34975)", "T1 construct": "Anesthetized male Sprague-Dawley rats; from tissue; host or cells: central nervous system of conscious male Sprague-Dawley rats (in vivo, lateral cerebral ventricle injection)", "T1 sequence (P34975 whole entry)": "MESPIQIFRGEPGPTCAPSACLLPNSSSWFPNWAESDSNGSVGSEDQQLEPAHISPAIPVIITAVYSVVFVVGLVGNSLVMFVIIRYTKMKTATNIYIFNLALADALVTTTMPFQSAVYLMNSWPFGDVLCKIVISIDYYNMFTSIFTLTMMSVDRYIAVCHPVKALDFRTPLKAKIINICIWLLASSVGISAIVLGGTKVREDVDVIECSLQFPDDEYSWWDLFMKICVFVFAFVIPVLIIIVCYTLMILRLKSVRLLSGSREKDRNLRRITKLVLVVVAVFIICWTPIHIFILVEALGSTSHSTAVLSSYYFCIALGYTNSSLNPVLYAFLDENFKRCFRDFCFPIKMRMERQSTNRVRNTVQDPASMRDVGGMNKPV", "assay": "renal responses to i.c.v. peptide in rats pre-treated i.c.v. with nor-binaltorphimine", "format": "in vivo", "conditions": "peptide 10 μg i.c.v.; nor-binaltorphimine 1 μg i.c.v.", "source_text": "Abbreviations are V, urine flow rate and UNa V, urinary sodium excretion.\nFor comparative purposes, the renal responses produced by central administration of the endogenous opioid peptide, dynorphin A, were also studied i.c.v.\n(§1) Anesthetized male Sprague-Dawley rats (275-300 g, Sprague-Dawley, Inc., Indianapolis, Ind.) were implanted with chronic arterial and venous cannulas and a bladder catheter in accordance with previously published methods (10, 12). For experiments in which drugs were administered i.c.v., a stainless steel cannula was stereotaxically implanted into the right lateral ventricle of rats under anesthesia at least 5-7 days prior to experimentation (11). On the morning of the study rats were placed in a rat holder which permits forward and backward movement and allows for collection of urine from the bladder catheter. Conscious rats were then infused i.v. with isotonic saline (50 μl/min) for the duration of the experiment. The arterial cannulae was then flushed and attached to a pressure transducer (Statham P23Db) and the urinary bladder catheter led to a collection beaker. After equilibration and stabilization of urine flow rate and urinary sodium excretion (approximately 2-3 hours) the experimental protocol described in each figure legend commenced. […]"}, "[3]": {"tested_on": "intact-chest, anesthetized rats", "assay": "bolus injection into right atrium versus left atrium, systemic arterial pressure (first-pass lung transit)", "format": "in vivo, rat", "conditions": "inferred from right versus left atrial injection", "source_text": "Such a hemodynamic profile would be particularly desireable in patients experiencing congestive heart failure since pulmonary vasodilation would be expected to enhance resolution of pulmonary edema and systemic vasodilation (i.e. afterload reduction) would be expected to enhance myocardial performance."}, "[4]": {"tested_on": "mice", "conditions": "administration to mice, literature (4,5); cited from earlier work"}, "[5]": {"tested_on": "constitutive nitric oxide synthase (cNOS)", "assay": "influence of L-NAME on urine flow rate responses in conscious rats", "conditions": "L-NAME 30 mg/Kg i.v., 45 min before infusion"}, "[6]": {"tested_on": "conscious and pentobarbital-anesthetized rats", "assay": "influence of pentobarbital anesthesia on renal and vascular effects of nociceptin", "format": "in vivo, rat", "source_text": "N=number of rats. *≤0.05 significant when compared using ANOVA.\nN=number of animals. *≤0.05 when ANOVA used statistical comparison."}, "[7]": {"tested_on": "conscious Sprague-Dawley rats", "assay": "i.v. bolus administration of 30 μg nociceptin in conscious rats", "format": "in vivo, rat", "conditions": "i.v. bolus 30 μg", "protocol": "Abbreviations are HR, heart rate; MAP, mean arterial pressure; V, urine flow rate; and UNa V, urinary sodium excretion. Statistical significance within each group was determined by a repeated measures analysis of variance followed by a Bonferroni multiple comparisons test; asterisks (a, b, or c) denote a significant change (p<0.05) from control within each group.\nas §1, with “beaker.” for “beaker. After equilibration and stabilization of urine flow rate and urinary sodium excretion (approximately 2-3 hours) the experimental protocol described in each figure legend commenced.”"}, "[8]": {"tested_on": "systemic vascular bed of the anesthetized rat", "conditions": "literature (18); cited from earlier work"}}}
{"smiles": "CC(C)C[C@H](NC(=O)[C@H](CCCCN)NC(=O)[C@H](CCCN=C(N)N)NC(=O)[C@H](C)NC(=O)[C@H](CO)NC(=O)[C@H](CCCCN)NC(=O)[C@H](CCCN=C(N)N)NC(=O)[C@H](C)NC(=O)CNC(=O)[C@@H](NC(=O)[C@H](Cc1ccccc1)NC(=O)CNC(=O)CNC(=O)[C@@H](N)Cc1ccccc1)[C@@H](C)O)C(=O)N[C@@H](C)C(=O)N[C@@H](CC(N)=O)C(=O)N[C@@H](CCC(N)=O)C(=O)O", "note": "[nociceptin]", "values": [{"measurement": "pulmonary vasodilator response after L-NAME and L-NIO", "setting": "[1]", "result": "inhibit"}, {"measurement": "effect on the pulmonary vascular bed", "setting": "[1]; tone elevated with U46619", "result": "dilates the pulmonary vascular bed"}, {"measurement": "effect of i.c.v. nor-binaltorphimine pretreatment on the diuresis and antinatriuresis produced by the peptide", "setting": "[2]", "result": "did not alter"}, {"measurement": "first-pass uptake or metabolism in the lung", "setting": "[3]", "result": "does not undergo significant first-pass uptake or metabolism"}, {"measurement": "response to painful stimuli", "setting": "[4]", "result": "hypersensitivity to painful stimuli"}, {"measurement": "increase in urine flow rate (V) in response to i.v. infusion after L-NAME", "setting": "[5]", "result": "significantly inhibited"}, {"measurement": "systemic vasodepressor activity, anesthetized versus conscious rats", "setting": "[6]; bolus i.v. injection", "result": "greater systemic vasodepressor activity"}, {"measurement": "ability to increase urinary flow rate (V) under anesthesia", "setting": "[6]; rats anesthetized with sodium pentobarbital, i.v. infusion", "result": "inhibited"}, {"measurement": "cardiovascular and renal parameters", "setting": "[7]", "result": "did not alter any cardiovascular or renal parameter"}, {"measurement": "decrease of systemic arterial pressure, sensitivity to naloxone", "setting": "[8]", "result": "naloxone-insensitive"}]}
